Results: patent US11739098B2 (BRISTOL-MYERS SQUIBB COMPANY, priority 2017, dated 2023)

Legend:
Type in all cases: cell-based
[1] = target: T1, human TLR8 (Homo sapiens, UniProt Q9NR97); assay: TLR8 inhibition reporter assay (HEK-Blue cells, SEAP reporter, R848 stimulation); conditions: HEK-Blue cells overexpressing human TLR8, SEAP reporter, R848 15.9 μM
T1 construct: host or cells: HEK-Blue cells (HEK293-derived reporter line)
T1 sequence (Q9NR97 27-1041): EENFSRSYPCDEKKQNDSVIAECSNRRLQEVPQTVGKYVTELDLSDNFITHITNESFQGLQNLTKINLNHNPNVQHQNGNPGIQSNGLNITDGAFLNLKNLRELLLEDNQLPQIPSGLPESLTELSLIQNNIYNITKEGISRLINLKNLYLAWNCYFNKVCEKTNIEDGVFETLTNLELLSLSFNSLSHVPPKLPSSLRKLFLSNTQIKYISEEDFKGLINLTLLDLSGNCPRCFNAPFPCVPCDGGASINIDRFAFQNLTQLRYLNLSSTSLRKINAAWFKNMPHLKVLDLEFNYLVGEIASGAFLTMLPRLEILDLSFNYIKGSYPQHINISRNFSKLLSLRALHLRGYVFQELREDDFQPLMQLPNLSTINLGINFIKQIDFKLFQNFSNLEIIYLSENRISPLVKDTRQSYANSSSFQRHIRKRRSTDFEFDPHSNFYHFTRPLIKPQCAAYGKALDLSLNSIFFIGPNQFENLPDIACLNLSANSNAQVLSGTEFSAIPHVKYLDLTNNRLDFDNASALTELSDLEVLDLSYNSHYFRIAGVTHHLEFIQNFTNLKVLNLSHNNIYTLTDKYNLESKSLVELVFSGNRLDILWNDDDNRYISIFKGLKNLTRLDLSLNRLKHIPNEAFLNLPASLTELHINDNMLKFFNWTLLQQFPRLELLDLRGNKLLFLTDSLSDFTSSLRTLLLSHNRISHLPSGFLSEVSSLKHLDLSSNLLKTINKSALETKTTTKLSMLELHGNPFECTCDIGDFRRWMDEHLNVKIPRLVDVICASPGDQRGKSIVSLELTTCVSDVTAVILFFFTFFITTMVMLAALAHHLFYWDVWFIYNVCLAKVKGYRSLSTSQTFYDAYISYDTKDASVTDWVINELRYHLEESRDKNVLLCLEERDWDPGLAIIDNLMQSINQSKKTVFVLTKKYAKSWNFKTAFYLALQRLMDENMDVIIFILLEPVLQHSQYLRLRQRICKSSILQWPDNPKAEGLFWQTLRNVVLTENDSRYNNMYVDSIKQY
In short: (§1)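 Agonists (final): TLR7 gardiquimod 7.5 μM; TLR8 R848 15.9 μM; TLR9 ODN2006 5 nM. HEK-Blue reporter cells, 30 min RT compound pre-incubation, 0.05 nM–50 μM dose range, 22 h at 37 °C, colorimetric SEAP detection medium. % inhibition relative to agonist+DMSO and known-inhibitor wells.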

[2] = target: T2, human TLR7 (Homo sapiens, UniProt Q9NYK1); assay: TLR7 inhibition reporter assay (HEK-Blue cells, SEAP reporter, gardiquimod stimulation); conditions: HEK-Blue cells overexpressing human TLR7, SEAP reporter, gardiquimod 7.5 μM
T2 construct: host or cells: HEK-Blue cells (HEK293-derived reporter line)
T2 sequence (Q9NYK1 27-1049): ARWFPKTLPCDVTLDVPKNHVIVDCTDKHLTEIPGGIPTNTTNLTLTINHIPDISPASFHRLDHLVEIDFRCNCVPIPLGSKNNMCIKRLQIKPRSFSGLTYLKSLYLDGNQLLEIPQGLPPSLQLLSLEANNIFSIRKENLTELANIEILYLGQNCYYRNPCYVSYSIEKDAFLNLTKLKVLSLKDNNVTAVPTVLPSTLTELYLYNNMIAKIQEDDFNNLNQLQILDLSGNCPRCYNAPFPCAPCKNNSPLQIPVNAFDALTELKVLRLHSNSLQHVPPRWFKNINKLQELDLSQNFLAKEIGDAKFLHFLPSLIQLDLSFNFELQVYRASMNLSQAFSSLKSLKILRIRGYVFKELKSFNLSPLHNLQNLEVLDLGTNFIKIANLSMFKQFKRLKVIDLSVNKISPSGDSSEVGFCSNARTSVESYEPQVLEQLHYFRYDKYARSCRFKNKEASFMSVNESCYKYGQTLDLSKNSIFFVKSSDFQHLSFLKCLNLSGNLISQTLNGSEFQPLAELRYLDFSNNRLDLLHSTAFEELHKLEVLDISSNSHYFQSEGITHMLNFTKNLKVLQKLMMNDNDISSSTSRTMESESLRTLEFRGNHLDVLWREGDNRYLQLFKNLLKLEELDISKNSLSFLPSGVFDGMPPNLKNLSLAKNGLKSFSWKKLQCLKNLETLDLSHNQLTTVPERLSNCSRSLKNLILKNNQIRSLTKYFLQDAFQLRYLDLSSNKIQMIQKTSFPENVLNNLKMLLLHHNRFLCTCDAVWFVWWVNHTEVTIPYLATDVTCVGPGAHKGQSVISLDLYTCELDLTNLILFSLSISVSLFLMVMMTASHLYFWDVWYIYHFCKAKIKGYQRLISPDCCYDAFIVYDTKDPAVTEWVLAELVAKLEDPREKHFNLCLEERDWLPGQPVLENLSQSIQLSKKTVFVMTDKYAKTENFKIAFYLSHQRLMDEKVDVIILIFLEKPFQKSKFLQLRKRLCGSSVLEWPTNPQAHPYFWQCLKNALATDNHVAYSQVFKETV
In short: as §1

[3] = target: T3, human TLR9 (Homo sapiens, UniProt Q9NR96); assay: TLR9 inhibition reporter assay (HEK-Blue cells, SEAP reporter, ODN2006 stimulation); conditions: HEK-Blue cells overexpressing human TLR9, SEAP reporter, ODN2006 5 nM
T3 construct: host or cells: HEK-Blue cells (HEK293-derived reporter line)
T3 sequence (Q9NR96 26-1032): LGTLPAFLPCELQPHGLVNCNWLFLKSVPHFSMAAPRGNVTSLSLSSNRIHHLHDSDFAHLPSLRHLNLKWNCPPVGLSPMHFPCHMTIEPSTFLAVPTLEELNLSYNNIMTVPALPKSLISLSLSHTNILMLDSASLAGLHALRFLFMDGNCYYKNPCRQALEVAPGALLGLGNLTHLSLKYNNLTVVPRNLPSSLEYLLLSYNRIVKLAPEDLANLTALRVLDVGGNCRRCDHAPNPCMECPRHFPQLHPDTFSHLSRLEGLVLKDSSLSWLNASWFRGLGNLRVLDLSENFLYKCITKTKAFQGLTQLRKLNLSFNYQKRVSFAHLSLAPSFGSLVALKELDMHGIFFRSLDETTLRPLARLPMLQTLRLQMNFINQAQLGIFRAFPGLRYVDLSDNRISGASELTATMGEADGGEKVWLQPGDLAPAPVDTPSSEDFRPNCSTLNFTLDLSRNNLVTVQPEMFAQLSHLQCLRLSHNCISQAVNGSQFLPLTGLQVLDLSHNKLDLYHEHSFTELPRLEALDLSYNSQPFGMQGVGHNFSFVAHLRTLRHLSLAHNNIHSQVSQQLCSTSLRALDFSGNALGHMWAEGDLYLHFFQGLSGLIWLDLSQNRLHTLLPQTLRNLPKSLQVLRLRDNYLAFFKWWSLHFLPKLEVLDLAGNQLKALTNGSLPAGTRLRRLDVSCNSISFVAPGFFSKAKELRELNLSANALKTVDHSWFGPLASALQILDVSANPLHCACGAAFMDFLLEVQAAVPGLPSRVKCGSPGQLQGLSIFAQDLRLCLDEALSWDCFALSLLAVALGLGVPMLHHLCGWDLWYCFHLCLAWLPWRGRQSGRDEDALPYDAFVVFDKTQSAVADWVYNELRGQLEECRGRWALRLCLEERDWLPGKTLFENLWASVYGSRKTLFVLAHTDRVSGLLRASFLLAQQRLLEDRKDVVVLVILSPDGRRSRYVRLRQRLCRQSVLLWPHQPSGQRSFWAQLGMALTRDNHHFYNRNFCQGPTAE
In short: as §1

| IC50 [1] [µM] | IC50 [2] [µM] | IC50 [3] [µM] | SMILES |
| --- | --- | --- | --- |
| < 0.1 | < 0.1 | 1 to 50 | COCCN1CCC(c2ccc3[nH]c(-c4cc(C)n5ncnc5c4)c(C(C)C)c3c2)CC1 [Example 779, 7-(3-isopropyl-5-(1-(2-methoxyethyl)piperidin-4-yl)-1H-indol-2-yl)-5-methyl-[1,2,4]triazolo[1,5-a]pyridine] |
| < 0.1 | < 0.1 | 1 to 50 | CNCC(=O)N1CCC(c2ccc3[nH]c(-c4cc(C)nc5ccccc45)c(C(C)C)c3c2)CC1 [Example 534, 1-(4-(3-isopropyl-2-(2-methylquinolin-4-yl)-1H-indol-5-yl)piperidin-1-yl)-2-(methylamino)ethan-1-one] |
| < 0.1 | < 0.1 | 1 to 50 | CCOc1cc(-c2[nH]c3ccc(C4CCN(C(=O)CN(C)C)CC4)cc3c2C(C)C)cc2nc(C)nn12 [Example 497, 2-(dimethylamino)-1-(4-(2-(5-ethoxy-2-methyl-[1,2,4]triazolo[1,5-a]pyridin-7-yl)-3-isopropyl-1H-indol-5-yl)piperidin-1-yl)ethan-1-one] |
| < 0.1 | < 0.1 | 1 to 50 | CC(C)c1c(-c2cc(Cl)c3ncccc3c2)[nH]c2ccc(C3CCN(CC(C)(C)O)CC3)cc12 [Example 767, 1-(4-(2-(8-chloroquinolin-6-yl)-3-isopropyl-1H-indol-5-yl)piperidin-1-yl)-2-methylpropan-2-ol] |
| < 0.1 | < 0.1 | 0.1 to 1 | CNC(=O)CN1CCC(c2ccc3[nH]c(-c4cc(C)c5nc(C)cn5c4)c(C(C)C)c3c2)CC1 [Example 391, 2-(4-(2-(2,8-dimethylimidazo[1,2-a]pyridin-6-yl)-3-isopropyl-1H-indol-5-yl)piperidin-1-yl)-N-methylacetamide] |
| < 0.1 | < 0.1 | 1 to 50 | CNC(=O)CN1CCC(c2ccc3[nH]c(-c4ccn5nnc(C)c5c4)c(C(C)C)c3c2)CC1 [Example 319, 2-(4-(3-isopropyl-2-(3-methyl-[1,2,3]triazolo[1,5-a]pyridin-5-yl)-1H-indol-5-yl)piperidin-1-yl)-N-methylacetamide] |
| 1 to 50 | 1 to 50 | 1 to 50 | Cc1nn2ccc(-c3[nH]c4ccc(C5CCNCC5)cc4c3C(C)C)nc2c1F [Example 150, 3-fluoro-5-(3-isopropyl-5-(piperidin-4-yl)-1H-indol-2-yl)-2-methylpyrazolo[1,5-a]pyrimidine] |
| < 0.1 | < 0.1 | 1 to 50 | Cc1cc(-c2[nH]c3ccc(C4CCN(C(=O)CN5CCCC5)CC4)cc3c2C(C)C)cn2nnnc12 [Example 470, 1-(4-(3-isopropyl-2-(8-methyltetrazolo[1,5-a]pyridin-6-yl)-1H-indol-5-yl)piperidin-1-yl)-2-(pyrrolidin-1-yl) ethan-1-one] |
| 1 to 50 | 0.1 to 1 | 1 to 50 | CC(C)c1c(-c2ccc3[nH]cnc3c2)[nH]c2ccc(C3CCNCC3)cc12 [Example 50, 5-(3-isopropyl-5-(piperidin-4-yl)-1H-indol-2-yl)-1H-benzo[d]imidazole] |
| 1 to 50 | 1 to 50 | 1 to 50 | Cc1cc(-c2[nH]c3ccc(C4CCN(C(=O)[C@@H]5C[C@@H](O)CN5)CC4)cc3c2C(C)C)cc2nccn12 [Example 539, ((2S,4R)-4-hydroxypyrrolidin-2-yl)(4-(3-isopropyl-2-(5-methylimidazo[1,2-a]pyridin-7-yl)-1H-indol-5-yl)piperidin-1-yl)methanone] |
| < 0.1 | < 0.1 | 0.1 to 1 | CC(C)c1c(-c2ccc(C#N)c3ncccc23)[nH]c2ccc(C3CCNCC3)cc12 [Example 109, 5-(3-isopropyl-5-(piperidin-4-yl)-1H-indol-2-yl)quinoline-8-carbonitrile] |
| < 0.1 | < 0.1 | 1 to 50 | Cc1nnn2ccc(-c3[nH]c4ccc(C5CCN(CC(N)=O)CC5)cc4c3C(C)C)cc12 [Example 317, 2-(4-(3-isopropyl-2-(3-methyl-[1,2,3]triazolo[1,5-a]pyridin-5-yl)-1H-indol-5-yl)piperidin-1-yl)acetamide] |
| < 0.1 | < 0.1 | 1 to 50 | Cc1cc(-c2[nH]c3ccc(C4CCN(C(=O)CCN(C)C)CC4)cc3c2C(C)C)cn2nnnc12 [Example 620, 3-(dimethylamino)-1-(4-(3-isopropyl-2-(8-methyltetrazolo[1,5-a]pyridin-6-yl)-1H-indol-5-yl)piperidin-1-yl)propan-1-one] |
| < 0.1 | < 0.1 | 1 to 50 | CCc1c(-c2ccnc3[nH]ncc23)[nH]c2ccc(C3CCNCC3F)cc12 (stereo not drawn) [Example 177, 4-(3-ethyl-5-(3-fluoropiperidin-4-yl)-1H-indol-2-yl)-1H-pyrazolo[3,4-b]pyridine] |
